Source: patent US9000154B2, “Rho kinase inhibitors” (Boehringer Ingelheim International GmbH, priority 2010, dated 2015)

Key:
ROCKII (1-543) [1] = molecular target: T1, ROCKII (1-543) (Homo sapiens, UniProt O75116); assay: Luciferin-Luciferase Assay (PKLight ATP detection); type: biochemical; set-up: ROCKII (1-543) (62,408 Da) was diluted in assay buffer; settings: 7.5 nM ROCKII (1-543), 750 nM ATP
Description: 1. Luciferin-Luciferase Assay
The activity of ROCKII (1-543) kinase was measured utilizing Cambrex PKLight ATP Detection Reagent, a homogeneous assay technology using luciferin-luciferase to quantify residual ATP. The assay was performed in 384-well low-volume, white, non-binding surface microtiter plates (Corning). The assay buffer was 25 mM HEPES, pH 7.5, 10 mM MgCl2, 50 mM KCl, 0.2% BSA, 0.01% CHAPS, 100 μM Na3VO4 and 0.5 mM DTT. Test compounds, dissolved in neat DMSO at 500 μg/mL, were serially diluted for dose response for a final starting concentration of 3 μg/mL in 1% DMSO of assay buffer. ROCKII (1-543) (62,408 Da) was diluted in assay buffer to a final concentration of 7.5 nM in a total volume of 15 μL. Positive controls were reaction mixtures containing no test compound; negative controls (blanks) were reaction mixtures containing no kinase. After 15 minutes of pre-incubation of the test compounds with the kinase, a mixture of ATP and peptide substrate (AKRRRLSSLRA) in assay buffer was added to each well for a final concentration of 750 nM ATP and 500 nM peptide, respectively. After 90 minutes of incubation of the kinase reaction at 28° C. temperature, 10 μL of PKLight ATP Detection Reagent (warmed to room temperature previously) was added to each well. The assay plate was incubated at room temperature for additional 15 minutes and then read on an Analyst in luminescence mode. Dose-response experiments for each of the test compounds were conducted in quadruplet. IC50 values of test compounds represent 50% response of the positive control from the dose-response curve.
Target sequence in this assay (O75116 1-543): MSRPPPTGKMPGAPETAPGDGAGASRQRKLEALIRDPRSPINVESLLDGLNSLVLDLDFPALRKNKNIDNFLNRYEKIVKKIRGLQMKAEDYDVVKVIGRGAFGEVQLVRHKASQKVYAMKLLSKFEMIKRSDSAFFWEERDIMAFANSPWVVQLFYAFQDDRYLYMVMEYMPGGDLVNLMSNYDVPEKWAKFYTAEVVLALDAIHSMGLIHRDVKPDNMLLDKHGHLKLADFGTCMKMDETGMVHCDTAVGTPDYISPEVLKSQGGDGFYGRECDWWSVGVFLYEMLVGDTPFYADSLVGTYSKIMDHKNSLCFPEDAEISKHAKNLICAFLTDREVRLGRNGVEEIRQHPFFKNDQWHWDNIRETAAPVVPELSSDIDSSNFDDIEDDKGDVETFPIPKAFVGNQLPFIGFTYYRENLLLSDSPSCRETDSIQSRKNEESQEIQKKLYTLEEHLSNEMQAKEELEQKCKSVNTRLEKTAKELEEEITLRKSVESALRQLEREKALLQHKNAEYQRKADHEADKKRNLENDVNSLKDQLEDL

ROCKII (1-543) [2] = molecular target: T1, ROCKII (1-543); assay: IMAP Assay (fluorescence polarization, FAM S6 peptide); type: biochemical; set-up: 3 nM ROCKII (1-543) diluted in kinase reaction buffer; settings: IMAP FP, 1 nM ROCKII (1-543), 100 μM ATP; read-out: Assay 2 IC50
Description: This assay is performed using FAM S6 substrate peptide (Catalogue #R7184) and IMAP FP Screening Express Kit detection reagents from Molecular Devices (Sunnyvale, Calif.) in IMAP kinase reaction buffer (Tris-HCl, pH 7.2, 10 mM MgCl2, 0.05% NaN3, 0.1% phosphate-free BSA) containing 1 mM DTT. Test compounds dissolved in neat DMSO at 0.3 mg/mL are serially diluted 1 to 3 for concentration response in 100% DMSO. The DMSO serial dilutions are further diluted 33.33-fold in kinase reaction buffer, and 10 μL of this buffer dilution is transferred to Corning black 96-well half area NBS plates for a final top concentration of 3 μg/mL in 1% DMSO. 10 μL aliquot of 3 nM ROCKII (1-543) diluted in kinase reaction buffer is added to each assay well for a final concentration of 1 nM kinase. 10 μL of a mixture of 600 nM FAM S6 peptide and 300 μM ATP diluted in kinase reaction buffer is added to each well for a final concentration of 200 nM peptide and 100 μM ATP. The kinase reaction mixture is incubated for 60 minutes at room temperature. Positive controls are reaction mixtures containing no test compound and negative controls (blanks) are reaction mixtures containing no kinase. The kinase reaction is stopped by addition of 60 μL IMAP progressive binding reagent (Catalog #R7284) diluted 400-fold in 1× Binding buffer A. After 30 min of incubation at room temperature, the plates are read for fluorescence polarization on Analyst Plate Reader using Ex 485 nm, Em 530 nm, and FL 505 dichroic mirror. The mP signals are converted to percent of control (POC) values using the formula: POC=100*(Signal−BCTRL)÷(PCTRL−BCTRL)
Where Signal is the test well signal, BCTRL is the average of background (negative control) well signals on the plate and PCTRL is the average of positive control well signals on the plate. For the concentration-responsive compounds, POC as a function of test compound concentration is fitted to a 4-parameter logistic equation of the form: Y=A+(B−A)/[1+(x/C)D]
Where A, B, C, and D are fitted parameters (parameter B is fixed at zero POC), and x and y are the independent and dependent variables, respectively. The IC50 is determined as the inflection point parameter, C.
Target sequence in this assay (O75116 1-543, species assumed): as the sequence (O75116 1-543) above

Dahl salt-sensitive rats = settings: congestive heart failure; cited from earlier work
[3] = system: spontaneously hypertensive rat, renal hypertensive rat and deoxycortisone acetate salt hypertensive rat models; settings: cited from earlier work
[4] = system: neointimal formation in rats; settings: balloon injury model; cited from earlier work
rat stroke model = settings: cited from earlier work
[5] = system: IL-1 beta-induced coronary stenosis; settings: porcine, long term treatment; cited from earlier work

SMILES | IC50 (ROCKII (1-543) [1]) [nM] | IC50 (ROCKII (1-543) [2]) [nM] | also measured
CN(CCC(F)(F)F)[C@H]1CCc2nc(NC(=O)c3cccc(Cn4cc(-c5ccc(C#N)cc5)cn4)c3)sc2C1 [Compound 30, 3-[4-(4-Cyano-phenyl)-pyrazol-1-ylmethyl]-N-{(S)-6-[methyl-(3,3,3-trifluoro-propyl)-amino]-4,5,6,7-tetrahydro-benzothiazol-2-yl}-benzamide] | 2.1 | 7.3 | –
CN(CCC#N)[C@H]1CCc2nc(NC(=O)c3cccc(Cn4cc(-c5ccc(C#N)cc5)nn4)c3)sc2C1 [Compound 32, N-{(S)-6-[(2-Cyano-ethyl)-methyl-amino]-4,5,6,7-tetrahydro-benzothiazol-2-yl}-3-[4-(4-cyano-phenyl)-[1,2,3]triazol-1-ylmethyl]-benzamide] | 2.9 | 2 | –
N#Cc1ccc(-c2nnc(Cc3cccc(C(=O)Nc4nc5c(s4)C[C@@H](N4CCOCC4)CC5)c3)o2)cc1 [Compound 40, 3-[5-(4-Cyano-phenyl)-1,3,4-oxadiazol-2-ylmethyl]-N—((S)-6-morpholin-4-yl-4,5,6,7-tetrahydro-benzothiazol-2-yl)-benzamide] | 3.2 | 12 | –
N#Cc1ccc(-c2cn(Cc3cccc(C(=O)Nc4nc5c(s4)CC(N4CCC(F)(F)CC4)CC5)c3)nn2)cc1 (stereo not drawn) [Compound 41, 3-[4-(4-Cyano-phenyl)-1,2,3-triazol-1-ylmethyl]-N-[6-(4,4-difluoro-piperidin-1-yl)-4,5,6,7-tetrahydro-benzothiazol-2-yl]-benzamide] | 7.1 | 5.8 | –
N#Cc1ccc(-c2cn(Cc3cccc(C(=O)Nc4nc5c(s4)CC(N4CCC(F)CC4)CC5)c3)nn2)cc1 (stereo not drawn) [Compound 42, 3-[4-(4-Cyano-phenyl)-1,2,3-triazol-1-ylmethyl]-N-[6-(4-fluoro-piperidin-1-yl)-4,5,6,7-tetrahydro-benzothiazol-2-yl]-benzamide] | 3.4 | 1.1 | –
N#Cc1ccc(-c2cn(Cc3cccc(C(=O)Nc4nc5c(s4)C[C@@H](N4CCCCC4)CC5)c3)nn2)cc1 [Compound 44, 3-[4-(4-Cyano-phenyl)-1,2,3-triazol-1-ylmethyl]-N—((S)-6-piperidin-1-yl-4,5,6,7-tetrahydro-benzothiazol-2-yl)-benzamide] | 2.4 | 0.53 | –
COCCN[C@H]1CCc2nc(NC(=O)c3cccc(Cn4cc(-c5ccc(C#N)cc5)cn4)c3)sc2C1 [Compound 45, 3-[4-(4-Cyano-phenyl)-pyrazol-1-ylmethyl]-N—[(S)-6-(2-methoxy-ethylamino)-4,5,6,7-tetrahydro-benzothiazol-2-yl]-benzamide] | 2.1 | 0.35 | –
COCCN(C)[C@H]1CCc2nc(NC(=O)c3cccc(Cn4cc(-c5ccc(C#N)cc5)nn4)c3)sc2C1 [Compound 49, 3-[4-(4-Cyano-phenyl)-[1,2,3]triazol-1-ylmethyl]-N-{(S)-6-[(2-methoxy-ethyl)-methyl-amino]-4,5,6,7-tetrahydro-benzothiazol-2-yl}-benzamide] | 1.7 | 0.73 | –
COCCN(CCOC)[C@H]1CCc2nc(NC(=O)c3cccc(Cn4cc(-c5ccc(C#N)cc5)nn4)c3)sc2C1 [Compound 55, N-{(S)-6-[Bis-(2-methoxy-ethyl)-amino]-4,5,6,7-tetrahydro-benzothiazol-2-yl}-3-[4-(4-cyano-phenyl)-[1,2,3]triazol-1-ylmethyl]-benzamide] | 2.3 | 6.5 | –
N#Cc1ccc(-c2nnc(Cc3cccc(C(=O)Nc4nc5c(s4)C[C@@H](N4CCOCC4)CC5)c3)s2)cc1 [Compound 56, 3-[5-(4-Cyano-phenyl)-1,3,4-thiadiazol-2-ylmethyl]-N—((S)-6-morpholin-4-yl-4,5,6,7-tetrahydro-benzothiazol-2-yl)-benzamide] | 2.5 | 4 | –
C[C@@H](N)[C@H]1CC[C@H](C(=O)Nc2ccncc2)CC1 [Compound Y-27632, Y-27632] | – | – | ventricular hypertrophy and function (Dahl salt-sensitive rats): improve ventricular hypertrophy and function; effect on blood pressure in control rats ([3]; control rats): only a minor effect; blood pressure in three rat models of hypertension ([3]; spontaneously hypertensive, renal hypertensive, deoxycortisone acetate salt hypertensive rats): significantly decrease blood pressure; neointimal formation [4]: inhibited neointimal formation
O=S(=O)(c1cccc2cnccc12)N1CCCNCC1 [fasudil] | – | – | infarct size and neurologic deficit (rat stroke model): reduce both the infarct size and neurologic deficit; coronary constrictive remodeling [5]: promote a regression of coronary constrictive remodeling; coronary stenosis [5]: progressively reduce coronary stenosis
